# Read-outs that look alike come from different tables or passages of the source.
# How the values were obtained:
# [1] = test system: Clostridium difficile UNT103-1; test: Non-cannulated Syrian hamster C. difficile infection model, oral gavage; assay type: in vivo, Golden Syrian hamsters
# Procedure: (§1) Following the recovery phase, male Golden Syrian hamsters were inoculated with Clostridium difficile UNT103-1 (VA11, non epidemic (cdtB-, REA group J) Curtis Donskey, Cleveland VA Hospital, Cleveland, Ohio). On Day 1, at 24 hrs after infection, all animals received a single subcutaneous injection of clindamycin (10 mg/kg). Test article formulations were administered three times per day (TID), starting on Day 2 at 18 hours after Clindamycin injection, for 5 consecutive days (Days 2 through 6), and followed until Day 22 to assess recurrence. Vancomycin (positive control) was administered once a day at 20 mg/kg on Days 2 through 6. Cecal spore counts and Toxins A and B were determined as described above
# Clostridium difficile = test: C. difficile MIC assay (broth dilution); assay type: cell-based; settings: Clostridioides difficile
# Procedure: A minimum inhibitory concentration (MIC) assessment was performed using the anaerobic human gastrointestinal pathogen Clostridium difficile. A modification of the CLSI M11-A8 broth dilution method for Bacteroides fragilis susceptibility testing was used for C. difficile. (Methods for Dilution In Antimicrobial Susceptibility Tests for Bacteria That Grow Aerobically; Approved Standard-Eighth Edition. CLSI document M07-A8 (ISBN 1-56238-689-1). Vol. 29 No. 2. Clinical and Laboratory Standards Institute, USA, 2009). […] C. difficile was streaked and incubated on blood agar plates under anaerobic conditions. […] A 4 μL aliquot of each dilution was added to 196 μL of Reinforced Clostridial Medium (RCM), with test strains in wells of a 96 well plate. The final volume was 200 μL in each well.
# Multisite variants were subsequently tested for specific antimicrobial activity in a C. difficile MIC assay (Table 10) (Methods for Antimicrobial Susceptibility Testing of Anaerobic Bacteria Approved Standard-Seventh Edition. CLSI document M11-A8 (ISBN 1-56238-790-1). Vol. 32 No. 5. Clinical and Laboratory Standards Institute, USA, 2012).
# [2] = test system: Clostridium difficile UNT103-1; test: Ileal cannulated Syrian hamster C. difficile infection model; assay type: in vivo, Golden Syrian hamsters
# Procedure: Following ileal cannulation surgery and recovery, male Golden Syrian hamsters were inoculated with Clostridium difficile UNT103-1 (VA11, non epidemic (cdtB-, REA group J) Curtis Donskey, Cleveland VA Hospital, Cleveland, Ohio). On Day 1, at 24 hrs after infection, all animals received a single subcutaneous injection of clindamycin (10 mg/kg). Test article formulations were administered three times per day (TID), starting on Day 2 at 18 hours after Clindamycin injection, for 5 consecutive days (Days 2 through 6). Vancomycin (positive control) was administered once a day at 20 mg/kg on Days 2 through 6, and followed until Day 22 to assess recurrence. The cecal contents from all hamsters that died on study or euthanized at the end ([…]) were tested for C. difficile Toxin A and Toxin B (tgc BIOMICS ELISA Kit, cat# TGC-E002-1) and for C. difficile Spore counts. Spore titer was determined by incubating the cecal contents in 50% final concentration of ethanol for 60 minutes at room temperature, centrifuging and resuspending the pellet in nano-pure water. The resuspension is incubated at 65° C. for 15 minutes, centrifuged again and the pellet resuspended again in nano-pure water. […] After 48 hours of anaerobic incubation, spore counts are determined as colony forming units (CFUs).
# Staphylococcus aureus = test: MIC assay against Staphylococcus aureus; assay type: cell-based; settings: Staphylococcus aureus, ATCC700699, read-out: MIC S. aureus ATCC 700699
# [3] = test system: Clostridium scindens (ATCC 35704); test: microbe, parasite or virus in culture; settings: ATCC35704, read-out: MIC C. scindens
# [4] = test system: Mycobacterium phlei (ATCC 11758); test: MIC assay against Mycobacterium phlei (acid-fast); assay type: cell-based; settings: Mycolicibacterium phlei, ATCC11758; acid-fast microorganism; single site variants
# [5] = test system: Bifidobacterium breve (ATCC 15700); test: microbe, parasite or virus in culture; settings: ATCC15700, read-out: MIC B. breve
# [6] = test system: Peptostreptococcus anaerobius (ATCC 27337); test: microbe, parasite or virus in culture; settings: ATCC27337, read-out: MIC P. anaerobius
# [7] = test system: Lactobacillus acidophilus (CCUG 4356); test: microbe, parasite or virus in culture; settings: CCUG4356, read-out: MIC L. acidophilus
# [8] = test system: Clostridium difficile UNT103-1; test: Second non-cannulated Syrian hamster C. difficile infection model, oral gavage dose range-finding; assay type: in vivo, Golden Syrian hamsters
# Procedure: as §1, with “formulated at 3 to 5 different doses” for “formulations”, “above.” for “above”
# [9] = vancomycin control, 20 mg/kg once a day
smiles,measurement,setting,value
CN[C@H](CC(C)C)C(=O)N[C@H]1C(=O)N[C@@H](CC(N)=O)C(=O)N[C@H]2C(=O)N[C@H]3C(=O)N[C@H](C(=O)N[C@H](C(=O)O)c4cc(O)cc(O)c4-c4cc3ccc4O)[C@H](O)c3ccc(c(Cl)c3)Oc3cc2cc(c3O[C@@H]2O[C@H](CO)[C@@H](O)[C@H](O)[C@H]2O[C@H]2C[C@](C)(N)[C@H](O)[C@H](C)O2)Oc2ccc(cc2Cl)[C@H]1O [Vancomycin],Mean LOG10 CFU/mL of feces homogenates (cecal spore counts) at Day-22,"[1]; hamster, in vivo, po",2.96 LOG10 CFU/mL
same,Percent Survival at Day-22,"[1]; oral gavage TID Days 2-6, vancomycin 20 mg/kg once a day",83%
same,Toxin A level at Day-22,"[1]; oral gavage, first value of A/B cell, limit of detection 0.8",84.2 ng/mL
same,Toxin B level at Day-22,"[1]; oral gavage, second value of A/B cell, limit of detection 0.8",8 ng/mL
same,MIC,"Clostridium difficile; ATCC9689, strain ATCC 9689, first value of cell (first of two independent tests), read-out: C. difficile MIC ATCC 9689",4 µg/mL
same,MIC,"Clostridium difficile; ATCC9689, strain ATCC 9689, multi-site variants, read-out: C. difficile MIC ATCC 9689",0.5 µg/mL
same,MIC,"Clostridium difficile; ATCC9689, strain ATCC 9689, second value of cell (second independent test), read-out: C. difficile MIC ATCC 9689",8 µg/mL
same,MIC,"Clostridium difficile; ATCC43255, strain ATCC 43255, read-out: C. difficile MIC ATCC 43255",1 µg/mL
same,MIC,"Clostridium difficile; ATCC43596, strain ATCC 43596, read-out: C. difficile MIC ATCC 43596",1 µg/mL
same,MIC,"Clostridium difficile; ATCC43597, strain ATCC 43597, read-out: C. difficile MIC ATCC 43597",0.5 µg/mL
same,MIC,"Clostridium difficile; ATCC70057, read-out: C. difficile MIC ATCC 70057, strain ATCC 70057, first value of cell (first of two independent tests)",0.5 µg/mL
same,MIC,"Clostridium difficile; ATCC70057, strain ATCC 70057, second value of cell (second independent test), read-out: C. difficile MIC ATCC 70057",1 µg/mL
same,MIC,"Clostridium difficile; ATCCBAA1805, strain ATCC BAA-1805, multi-site variants, read-out: C. difficile MIC ATCC BAA-1805",1 µg/mL
same,MIC,"Clostridium difficile; ATCCBAA1808, strain ATCC BAA-1808, read-out: C. difficile MIC ATCC BAA-1808",0.5 µg/mL
same,MIC,"Clostridium difficile; ATCCBAA1874, strain ATCC BAA-1874, read-out: C. difficile MIC ATCC BAA-1874",0.5 µg/mL
same,MIC,"Clostridium difficile; ATCCBAA1875, strain ATCC BAA-1875, multi-site variants, read-out: C. difficile MIC ATCC BAA-1875",0.5 µg/mL
same,MIC,"Clostridium difficile; BAA1805, strain BAA-1805, single site variants, read-out: C. difficile MIC BAA-1805",1 µg/mL
same,MIC,"Clostridium difficile; BAA1875, strain BAA-1875, single site variants, read-out: C. difficile MIC BAA-1875",1 µg/mL
same,MIC,"Clostridium difficile; strain 103-1 (UNT103-1), read-out: C. difficile MIC 103-1",1 µg/mL
same,MIC,"Clostridium difficile; strain 107-1 (UNT107-1), read-out: C. difficile MIC 107-1",4 µg/mL
same,MIC,"Clostridium difficile; strain BI1, read-out: C. difficile MIC BI1",8 µg/mL
same,Mean LOG10 CFU/mL of feces homogenates (cecal spore counts) at Day-22,"[2]; hamster, in vivo",3.24 LOG10 CFU/mL
same,Percent Survival at Day-22,"[2]; ileal cannulated hamsters, test articles TID Days 2-6, vancomycin 20 mg/kg once a day",33%
same,MIC,Staphylococcus aureus,2 µg/mL
same,MIC,[3],1 µg/mL
same,MIC,[4],0.25 µg/mL
same,MIC,[5],0.5 µg/mL
same,MIC,[6],1 µg/mL
same,MIC,[7],1 µg/mL
same,Mean LOG10 CFU/mL of feces homogenates (cecal spore counts) at Day-22,"[8]; hamster, in vivo, 20 mg/kg",6.66 LOG10 CFU/mL
same,Percent Survival at Day-22,"[8]; hamster, in vivo, 20 mg/kg",50%
same,Toxin A level at Day-22,[8]; [9],292.6 ng/mL
same,Toxin B level at Day-22,[8]; [9],71.1 ng/mL
